How the values were obtained:
A/M2 S31N mutant = A/M2 S31N mutant (Influenza A virus, UniProt P0DOF5, S31N); format: cell-based, influenza A/Udorn/72
A/M2 V27A mutant = A/M2 V27A mutant (Influenza A virus, UniProt P0DOF5, V27A); format: cell-based, influenza A/Udorn/72

| Substance | inhibition of S31N A/M2 channel activity (in words) (A/M2 S31N mutant) | inhibition of V27A A/M2 channel activity (in words) (A/M2 V27A mutant) |
| --- | --- | --- |
| 6,7,8,9,10,11-Hexahydro-9-methyl-5,7:9,11-dimethano-5H-benzocyclononen-7-amine hydrochloride [Compound 3] | Neither 3 nor 11 were able to inhibit | Neither 3 nor 11 were able to inhibit |
| N,N-Dimethyl-6,7,8,9,10,11-hexahydro-9-methyl-5,7:9,11-dimethano-5H-benzocyclononen-7-amine hydrochloride [Compound 11] | Neither 3 nor 11 were able to inhibit | Neither 3 nor 11 were able to inhibit |
| N-Benzyl-6,7,8,9,10,11-hexahydro-9-methyl-5,7:9,11-dimethano-5H-benzocyclononen-7-amine hydrochloride [Compound 6] | unable to inhibit | unable to inhibit |

— paper PMC3353318 (Bioorganic & Medicinal Chemistry, 2011)
